In PMC2832868 (Journal of Medicinal Chemistry, 2010):
Read-outs that look alike come from different tables or passages of the source. Marks after values point to notes of the source that are not given here.

How the values were obtained:
[1] = mice, cited from earlier work
[2] = Solubility in aqueous buffer; type: physicochemical
Pharmacokinetics in mice = type: in vivo

| solubility (S) at pH 7 [2] | Foral (Pharmacokinetics in mice; oral administration of same dose (10 mg kg^−1)) | drug levels following oral dosing (Pharmacokinetics in mice; oral dosing 10 mg/kg) | SMILES | Foral ([1]; oral administration of same dose (25 mg kg^−1)) [%] | Clp ([1]; plasma, IV dose 25 mg kg^−1) [L/h] |
| --- | --- | --- | --- | --- | --- |
| negligible solubility |  |  | NC1(Cc2ccc(Cl)cc2)CCN(c2ncnc3[nH]ccc23)CC1 [Compound 2, 4-(4-chlorobenzyl)-1-(7H-pyrrolo[2,3-d]pyrimidin-4-yl)piperidin-4-amine] | 8.5 | 0.33 |
|  | <1 ^c % | no measurable drug levels | CC(C)(C)c1ccc(CC2(N)CCN(c3ncnc4[nH]ccc34)CC2)cc1 [Compound 10, 4-(4-tert-Butylbenzyl)-1-(7H-pyrrolo[2,3-d]pyrimidin-4-yl)piperidin-4-amine] |  |  |
